# From ChEMBL document CHEMBL5696441 (Nat Chem Biol, 2011)
# Columns and labels:
# [1] = molecular target: Tyrosine-protein kinase Mer (Homo sapiens) (UniProt Q12866); test: Inhibition of MERTK (unknown origin) assessed as remaining activity at 1 uM by Kinome scan method relative to control
# [2] = molecular target: T1, Ephrin type-A receptor 1 (Homo sapiens) (UniProt P21709); test: Inhibition of human EPHA1 assessed as residual activity at 1 uM using polyEY as substrate in presence of 33P-ATP by ProQinase assay relative to control
# T1 sequence (whole entry): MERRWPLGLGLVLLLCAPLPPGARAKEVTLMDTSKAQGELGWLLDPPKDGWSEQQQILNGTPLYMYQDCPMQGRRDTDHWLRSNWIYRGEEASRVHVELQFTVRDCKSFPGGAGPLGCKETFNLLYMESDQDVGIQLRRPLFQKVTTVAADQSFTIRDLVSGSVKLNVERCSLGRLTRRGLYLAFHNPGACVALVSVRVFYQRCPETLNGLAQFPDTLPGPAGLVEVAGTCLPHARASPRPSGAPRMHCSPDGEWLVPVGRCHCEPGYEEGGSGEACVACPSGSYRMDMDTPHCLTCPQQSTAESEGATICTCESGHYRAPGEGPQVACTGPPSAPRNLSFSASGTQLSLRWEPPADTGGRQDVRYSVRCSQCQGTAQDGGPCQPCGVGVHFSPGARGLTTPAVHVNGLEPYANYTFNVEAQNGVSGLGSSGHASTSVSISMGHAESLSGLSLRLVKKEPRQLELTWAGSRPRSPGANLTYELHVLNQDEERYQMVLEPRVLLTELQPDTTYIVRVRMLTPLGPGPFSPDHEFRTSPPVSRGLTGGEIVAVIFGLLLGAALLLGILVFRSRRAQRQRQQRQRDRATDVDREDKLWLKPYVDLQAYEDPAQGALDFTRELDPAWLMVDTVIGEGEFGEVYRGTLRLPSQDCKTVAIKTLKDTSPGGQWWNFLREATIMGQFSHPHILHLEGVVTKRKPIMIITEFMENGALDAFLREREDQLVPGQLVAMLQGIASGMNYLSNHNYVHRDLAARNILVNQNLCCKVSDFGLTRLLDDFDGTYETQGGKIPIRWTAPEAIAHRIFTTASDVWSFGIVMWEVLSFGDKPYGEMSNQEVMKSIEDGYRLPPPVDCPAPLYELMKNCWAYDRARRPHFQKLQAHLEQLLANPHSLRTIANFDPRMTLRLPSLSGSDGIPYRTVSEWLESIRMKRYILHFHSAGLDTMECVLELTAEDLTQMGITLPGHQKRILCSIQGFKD
# [3] = system: Tyrosine-protein kinase ABL1 (Homo sapiens), P00519 [Y253F]; test: Inhibition of human ABL1 Y253F mutant assessed as residual activity at 1 uM using Poly(Ala,Glu,Lys,Tyr)6:2:5:1 as substrate in presence of 33P-ATP by ProQinase assay relative to control
# [4] = molecular target: Receptor tyrosine-protein kinase erbB-3 (Homo sapiens) (UniProt P21860); test: Inhibition of ERBB3 (unknown origin) assessed as remaining activity at 1 uM by Kinome scan method relative to control
# Receptor tyrosine-protein kinase erbB-3 (Homo sapiens), sequence (P21860 whole entry): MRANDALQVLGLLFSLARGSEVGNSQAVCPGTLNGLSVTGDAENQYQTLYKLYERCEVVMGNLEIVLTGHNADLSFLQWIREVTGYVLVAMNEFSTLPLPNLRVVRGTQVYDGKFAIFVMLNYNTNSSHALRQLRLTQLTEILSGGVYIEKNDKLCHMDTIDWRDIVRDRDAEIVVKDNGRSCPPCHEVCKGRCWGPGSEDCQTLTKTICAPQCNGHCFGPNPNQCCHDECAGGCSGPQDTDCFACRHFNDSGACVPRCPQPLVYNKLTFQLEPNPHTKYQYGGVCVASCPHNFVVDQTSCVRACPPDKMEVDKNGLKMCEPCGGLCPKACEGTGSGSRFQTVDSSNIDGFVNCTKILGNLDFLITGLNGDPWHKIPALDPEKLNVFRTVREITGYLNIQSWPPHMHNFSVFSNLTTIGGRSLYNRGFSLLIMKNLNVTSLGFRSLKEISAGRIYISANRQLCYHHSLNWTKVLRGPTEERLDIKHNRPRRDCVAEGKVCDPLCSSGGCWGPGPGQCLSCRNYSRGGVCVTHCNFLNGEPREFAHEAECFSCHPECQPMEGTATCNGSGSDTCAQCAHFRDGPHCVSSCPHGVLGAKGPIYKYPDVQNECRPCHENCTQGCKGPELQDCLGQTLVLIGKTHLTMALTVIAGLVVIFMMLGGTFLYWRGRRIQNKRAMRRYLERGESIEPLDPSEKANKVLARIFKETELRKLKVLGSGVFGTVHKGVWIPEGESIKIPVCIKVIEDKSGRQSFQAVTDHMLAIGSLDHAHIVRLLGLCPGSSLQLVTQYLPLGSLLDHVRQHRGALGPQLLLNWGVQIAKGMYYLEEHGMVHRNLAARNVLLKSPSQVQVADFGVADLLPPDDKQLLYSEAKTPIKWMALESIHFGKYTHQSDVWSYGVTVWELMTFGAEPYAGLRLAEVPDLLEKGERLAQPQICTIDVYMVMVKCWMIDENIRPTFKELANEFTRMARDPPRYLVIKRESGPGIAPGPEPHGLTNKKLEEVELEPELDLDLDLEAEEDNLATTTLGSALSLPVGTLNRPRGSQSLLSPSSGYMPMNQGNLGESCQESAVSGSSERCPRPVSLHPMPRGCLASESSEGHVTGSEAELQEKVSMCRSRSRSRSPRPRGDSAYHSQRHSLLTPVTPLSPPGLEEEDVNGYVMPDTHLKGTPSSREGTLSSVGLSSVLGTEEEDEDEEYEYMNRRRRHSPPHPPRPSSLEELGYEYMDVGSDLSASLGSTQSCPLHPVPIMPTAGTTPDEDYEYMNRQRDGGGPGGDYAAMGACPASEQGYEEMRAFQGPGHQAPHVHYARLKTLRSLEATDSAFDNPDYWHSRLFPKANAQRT
# [5] = molecular target: Mitogen-activated protein kinase kinase kinase 1 (Homo sapiens) (UniProt Q13233); test: Inhibition of MAP3K1 (unknown origin) assessed as remaining activity at 1 uM by Kinome scan method relative to control
# Mitogen-activated protein kinase kinase kinase 1 (Homo sapiens), sequence (Q13233 whole entry, canonical isoform): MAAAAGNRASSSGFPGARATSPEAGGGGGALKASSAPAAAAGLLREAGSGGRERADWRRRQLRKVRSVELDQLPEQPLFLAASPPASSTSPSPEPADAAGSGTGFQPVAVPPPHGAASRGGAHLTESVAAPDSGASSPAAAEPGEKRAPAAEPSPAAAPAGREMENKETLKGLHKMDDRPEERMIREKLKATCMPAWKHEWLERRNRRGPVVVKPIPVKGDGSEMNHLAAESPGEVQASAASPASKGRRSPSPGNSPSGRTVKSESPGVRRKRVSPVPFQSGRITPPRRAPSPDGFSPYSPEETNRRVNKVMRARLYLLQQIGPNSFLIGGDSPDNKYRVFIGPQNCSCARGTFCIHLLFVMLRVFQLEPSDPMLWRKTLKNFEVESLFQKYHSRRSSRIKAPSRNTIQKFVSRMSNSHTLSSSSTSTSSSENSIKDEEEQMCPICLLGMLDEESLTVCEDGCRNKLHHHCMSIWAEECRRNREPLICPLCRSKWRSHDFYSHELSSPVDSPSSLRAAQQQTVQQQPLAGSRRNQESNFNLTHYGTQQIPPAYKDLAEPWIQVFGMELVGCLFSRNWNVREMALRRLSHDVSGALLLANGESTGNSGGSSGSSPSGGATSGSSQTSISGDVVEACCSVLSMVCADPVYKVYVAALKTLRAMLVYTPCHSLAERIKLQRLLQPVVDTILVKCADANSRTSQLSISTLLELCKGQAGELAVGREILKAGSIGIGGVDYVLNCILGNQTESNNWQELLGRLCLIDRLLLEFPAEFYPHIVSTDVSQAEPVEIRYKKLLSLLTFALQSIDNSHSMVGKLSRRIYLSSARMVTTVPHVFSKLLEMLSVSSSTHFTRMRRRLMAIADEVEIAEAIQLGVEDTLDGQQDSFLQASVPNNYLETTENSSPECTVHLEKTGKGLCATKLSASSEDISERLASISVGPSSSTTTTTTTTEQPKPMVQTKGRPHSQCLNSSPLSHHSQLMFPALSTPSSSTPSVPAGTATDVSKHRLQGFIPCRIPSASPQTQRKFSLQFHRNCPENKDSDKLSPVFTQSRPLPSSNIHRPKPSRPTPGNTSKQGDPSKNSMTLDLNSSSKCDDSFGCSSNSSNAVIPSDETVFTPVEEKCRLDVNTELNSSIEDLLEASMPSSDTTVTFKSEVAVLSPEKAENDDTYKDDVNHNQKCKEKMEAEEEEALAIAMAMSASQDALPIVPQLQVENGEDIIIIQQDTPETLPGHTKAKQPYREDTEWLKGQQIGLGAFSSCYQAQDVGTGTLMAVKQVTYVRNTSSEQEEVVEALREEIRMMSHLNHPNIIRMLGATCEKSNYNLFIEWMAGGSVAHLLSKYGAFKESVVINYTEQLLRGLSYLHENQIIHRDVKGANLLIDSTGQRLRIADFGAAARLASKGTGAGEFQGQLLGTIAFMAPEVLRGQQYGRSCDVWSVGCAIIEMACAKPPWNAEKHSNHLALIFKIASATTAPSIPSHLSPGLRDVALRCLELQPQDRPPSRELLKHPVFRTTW
# [6] = molecular target: T2, Phosphorylase b kinase gamma catalytic chain, liver/testis isoform (Homo sapiens) (UniProt P15735); test: Inhibition of human PHKG2 assessed as residual activity at 1 uM using RBER-CHKtide as substrate in presence of 33P-ATP by ProQinase assay relative to control
# T2 sequence (whole entry): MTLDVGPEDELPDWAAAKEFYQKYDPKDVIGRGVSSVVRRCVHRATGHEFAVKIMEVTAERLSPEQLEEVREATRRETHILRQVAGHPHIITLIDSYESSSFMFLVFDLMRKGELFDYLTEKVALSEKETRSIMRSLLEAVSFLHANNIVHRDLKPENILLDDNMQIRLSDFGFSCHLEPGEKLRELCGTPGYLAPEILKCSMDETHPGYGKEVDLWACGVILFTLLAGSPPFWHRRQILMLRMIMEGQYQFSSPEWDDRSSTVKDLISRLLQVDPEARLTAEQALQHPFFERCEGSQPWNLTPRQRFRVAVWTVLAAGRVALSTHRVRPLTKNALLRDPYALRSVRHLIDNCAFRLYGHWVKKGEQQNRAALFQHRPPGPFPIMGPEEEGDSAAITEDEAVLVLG
# [7] = molecular target: Ephrin type-A receptor 5 (Homo sapiens) (UniProt P54756); test: Inhibition of EPHA5 (unknown origin) assessed as remaining activity at 1 uM by Kinome scan method relative to control
# Ephrin type-A receptor 5 (Homo sapiens), sequence (P54756 whole entry): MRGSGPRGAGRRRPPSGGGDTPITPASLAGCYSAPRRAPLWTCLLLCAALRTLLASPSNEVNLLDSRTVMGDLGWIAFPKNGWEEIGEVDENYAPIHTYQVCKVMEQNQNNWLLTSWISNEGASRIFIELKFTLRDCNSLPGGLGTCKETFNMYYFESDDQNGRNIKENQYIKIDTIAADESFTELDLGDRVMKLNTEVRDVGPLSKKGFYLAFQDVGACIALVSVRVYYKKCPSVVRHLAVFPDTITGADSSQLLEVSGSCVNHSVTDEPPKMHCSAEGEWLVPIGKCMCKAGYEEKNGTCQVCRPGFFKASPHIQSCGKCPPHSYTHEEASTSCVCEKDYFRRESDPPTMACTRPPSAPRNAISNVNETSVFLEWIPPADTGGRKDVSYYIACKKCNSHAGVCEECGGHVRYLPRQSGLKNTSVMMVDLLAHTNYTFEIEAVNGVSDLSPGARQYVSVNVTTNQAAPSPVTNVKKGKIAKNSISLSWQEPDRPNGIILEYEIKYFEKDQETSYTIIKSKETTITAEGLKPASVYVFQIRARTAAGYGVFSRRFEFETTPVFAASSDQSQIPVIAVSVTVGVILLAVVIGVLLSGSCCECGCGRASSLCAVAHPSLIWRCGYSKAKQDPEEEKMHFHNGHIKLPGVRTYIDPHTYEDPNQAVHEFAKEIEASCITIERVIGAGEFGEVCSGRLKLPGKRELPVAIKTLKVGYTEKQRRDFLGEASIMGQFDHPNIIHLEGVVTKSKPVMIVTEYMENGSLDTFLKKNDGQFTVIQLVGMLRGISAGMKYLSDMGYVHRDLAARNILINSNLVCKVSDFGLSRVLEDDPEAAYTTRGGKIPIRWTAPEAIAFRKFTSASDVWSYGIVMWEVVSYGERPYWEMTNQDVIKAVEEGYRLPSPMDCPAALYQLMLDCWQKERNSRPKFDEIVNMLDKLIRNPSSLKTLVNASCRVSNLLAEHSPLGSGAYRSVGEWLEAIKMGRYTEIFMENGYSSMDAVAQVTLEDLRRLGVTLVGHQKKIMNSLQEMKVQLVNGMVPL
# [8] = molecular target: Serine/threonine-protein kinase PAK 2 (Homo sapiens) (UniProt Q13177); test: Inhibition of human PAK2 assessed as residual activity at 1 uM using bio-4xCHKT as substrate in presence of 33P-ATP by ProQinase assay relative to control
# [9] = system: Receptor-type tyrosine-protein kinase FLT3 (Homo sapiens), P36888 [D835Y]; test: Inhibition of human […] mutant assessed as residual activity at 1 uM using Poly(Ala,Glu,Lys,Tyr)6:2:5:1 as substrate in presence of 33P-ATP by ProQinase assay relative to control
# [10] = molecular target: Bone morphogenetic protein receptor type-2 (Homo sapiens) (UniProt Q13873); test: Inhibition of BMPR2 (unknown origin) assessed as remaining activity at 1 uM by Kinome scan method relative to control
# [11] = Anti-inflammatory activity against human derived high respond PBMC cells assessed as inhibition in stimulated TARC chemokine release incubated for 2 hrs in the presence of LPS/SEB/aCD28 by Luminex based sandwich immunoassay; type: functional, cell-based
# [12] = molecular target: Serine/threonine-protein kinase TNNI3K (Homo sapiens) (UniProt Q59H18); test: Inhibition of TNNI3K (unknown origin) assessed as remaining activity at 1 uM by Kinome scan method relative to control
# [13] = molecular target: Tyrosine-protein kinase Lyn (Homo sapiens) (UniProt P07948); test: Inhibition of human LYN assessed as residual activity at 1 uM using polyEY as substrate in presence of 33P-ATP by ProQinase assay relative to control
# [14] = molecular target: Serine/threonine-protein kinase B-raf (Homo sapiens) (UniProt P15056); test: Inhibition of BRAF (unknown origin) assessed as remaining activity at 1 uM by Kinome scan method relative to control
# Serine/threonine-protein kinase B-raf (Homo sapiens), sequence (P15056 whole entry): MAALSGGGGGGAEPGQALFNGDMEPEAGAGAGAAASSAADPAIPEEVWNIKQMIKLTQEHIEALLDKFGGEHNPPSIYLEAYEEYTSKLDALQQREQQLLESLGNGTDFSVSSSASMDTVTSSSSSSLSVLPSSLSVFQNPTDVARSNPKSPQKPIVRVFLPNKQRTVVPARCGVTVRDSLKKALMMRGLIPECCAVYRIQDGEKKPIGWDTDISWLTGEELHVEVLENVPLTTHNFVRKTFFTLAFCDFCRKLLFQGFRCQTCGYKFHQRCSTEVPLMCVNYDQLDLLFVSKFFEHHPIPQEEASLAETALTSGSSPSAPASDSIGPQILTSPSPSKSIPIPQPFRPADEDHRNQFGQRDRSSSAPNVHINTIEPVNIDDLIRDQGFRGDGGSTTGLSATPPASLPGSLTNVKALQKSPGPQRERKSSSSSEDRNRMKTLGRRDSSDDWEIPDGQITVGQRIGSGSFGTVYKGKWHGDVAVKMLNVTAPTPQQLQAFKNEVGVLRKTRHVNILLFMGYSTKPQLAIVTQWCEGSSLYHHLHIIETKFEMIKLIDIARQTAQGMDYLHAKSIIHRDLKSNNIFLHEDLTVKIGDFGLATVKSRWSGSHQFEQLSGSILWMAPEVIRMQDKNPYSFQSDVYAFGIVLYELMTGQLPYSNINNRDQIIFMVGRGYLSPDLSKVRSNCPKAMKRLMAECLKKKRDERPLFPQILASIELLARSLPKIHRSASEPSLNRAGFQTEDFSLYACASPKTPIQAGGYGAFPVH
# [15] = molecular target: RAC-alpha serine/threonine-protein kinase (Homo sapiens) (UniProt P31749); test: Inhibition of AKT1 (unknown origin) assessed as remaining activity at 1 uM by Kinome scan method relative to control
# [16] = molecular target: Serine/threonine-protein kinase PAK 5 (Homo sapiens) (UniProt Q9P286); test: Inhibition of human PAK7 assessed as residual activity at 1 uM using bio-4xCHKT as substrate in presence of 33P-ATP by ProQinase assay relative to control
structure (smiles),measurement,setting,value
O=C1c2ccc(Nc3ccc(F)cc3F)cc2CCc2ccc(OC[C@H](O)CO)cc21 [Skepinone-L],Activity,[1],92%
same,Activity,[2],115%
same,Activity,[3],88%
same,Activity,[4],100%
same,Activity,[5],100%
same,Activity,[6],73%
same,Activity,[7],98%
same,Activity,[8],83%
same,Activity,[9],101%
same,Activity,[10],100%
same,IC50,[11],Not Active
same,Activity,[12],90%
same,Activity,[13],98%
same,Activity,[14],100%
same,Activity,[15],100%
same,Activity,[16],87%
